Assay results from article PMC7259601 (PLoS ONE, 2020).

Assays:
brain MAO-A = brain MAO-A (Mus musculus, UniProt Q64133); assay: in vivo
Method: Male CD1 mice (8 weeks of age, 25-30 g) procured from Charles River were housed in the same conditions as in Ex vivo assay of MAO-A inhibition section.
Ex-vivo MAO-A activity was measured essentially as previously described . […] Brain samples were weighed and then thawed and homogenised in 20 volumes of homogenisation buffer after which MAO-A activity was measured. […] Enzyme activity was corrected by subtracting an assay buffer blank and initially expressed in units of nmoles substrate/min. The protein concentration of the homogenates was measured and used to express final enzyme activity in units of nmoles/min/mg protein. All results are expressed as a mean of duplicate determinations. Brains from animals treated acutely were assayed on a different day to those treated for 5 days (chronically).
MAO-A activity was determined using serotonin creatinine sulphate [2-^14C] as outlined above. Raw enzyme activity values (in nmoles substrate/min) were corrected by subtracting an assay buffer blank and were normalized to the total protein concentration (in nmoles/min/mg protein). All results are means of duplicate determinations. Different drug treatments were compared by Oneway-ANOVA with Dunnett analysis.

[1] = molecular target: T1, BLT1 (LTB4) (h) (agonist radioligand) (Homo sapiens, UniProt Q15722); assay: CEREP Diversity Panel; type: binding
T1 construct: purchased CEREP (Eurofins Cerep)
Method: (§1) […]. MAO-A inhibition at 10 μM was 37%, in line with internal data.

[2] = molecular target: T2, ETB (h) (agonist radioligand) (Homo sapiens, UniProt P24530); assay: CEREP Diversity Panel; type: binding
T2 construct: purchased CEREP (Eurofins Cerep)
T2 sequence (P24530 27-442): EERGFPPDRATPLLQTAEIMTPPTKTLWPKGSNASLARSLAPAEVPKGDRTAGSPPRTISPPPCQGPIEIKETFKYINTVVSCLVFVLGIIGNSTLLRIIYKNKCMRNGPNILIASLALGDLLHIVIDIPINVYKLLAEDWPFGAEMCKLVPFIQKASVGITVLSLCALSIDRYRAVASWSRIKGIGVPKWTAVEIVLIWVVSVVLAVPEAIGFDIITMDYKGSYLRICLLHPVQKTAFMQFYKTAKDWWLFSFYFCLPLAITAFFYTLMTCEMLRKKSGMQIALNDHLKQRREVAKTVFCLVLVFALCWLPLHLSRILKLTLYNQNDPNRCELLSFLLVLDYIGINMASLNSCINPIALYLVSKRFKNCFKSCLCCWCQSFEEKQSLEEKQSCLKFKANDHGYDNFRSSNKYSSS
Method: as §1

[3] = molecular target: T3, AT1 (h) (antagonist radioligand) (Homo sapiens, UniProt P30556); assay: CEREP Diversity Panel; type: binding
T3 construct: purchased CEREP (Eurofins Cerep)
Method: as §1

[4] = molecular target: T4, NK1 (h) (agonist radioligand) (Homo sapiens, UniProt P25103); assay: CEREP Diversity Panel; type: binding
T4 construct: purchased CEREP (Eurofins Cerep)
Method: as §1

[5] = molecular target: T5, CysLT1 (LTD4) (h) (agonist radioligand) (Homo sapiens, UniProt Q9Y271); assay: CEREP Diversity Panel; type: binding
T5 construct: purchased CEREP (Eurofins Cerep)
T5 sequence (Q9Y271 whole entry): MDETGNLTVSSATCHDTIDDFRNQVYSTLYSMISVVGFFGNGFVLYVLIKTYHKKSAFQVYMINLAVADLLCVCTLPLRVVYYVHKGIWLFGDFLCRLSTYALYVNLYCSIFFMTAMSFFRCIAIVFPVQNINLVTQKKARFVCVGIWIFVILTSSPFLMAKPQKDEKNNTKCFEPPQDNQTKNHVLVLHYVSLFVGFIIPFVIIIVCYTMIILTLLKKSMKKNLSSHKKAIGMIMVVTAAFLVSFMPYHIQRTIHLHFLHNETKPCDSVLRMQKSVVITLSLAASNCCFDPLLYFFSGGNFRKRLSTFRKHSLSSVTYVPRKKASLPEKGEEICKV
Method: as §1

[6] = molecular target: T6, norepinephrine transporter (h) (antagonist radioligand) (Homo sapiens, UniProt P23975); assay: CEREP Diversity Panel; type: binding
T6 construct: purchased CEREP (Eurofins Cerep)
Method: as §1

[7] = molecular target: T7, AT2 (h) (agonist radioligand) (Homo sapiens, UniProt P50052); assay: CEREP Diversity Panel; type: binding
T7 construct: purchased CEREP (Eurofins Cerep)
T7 sequence (P50052 whole entry): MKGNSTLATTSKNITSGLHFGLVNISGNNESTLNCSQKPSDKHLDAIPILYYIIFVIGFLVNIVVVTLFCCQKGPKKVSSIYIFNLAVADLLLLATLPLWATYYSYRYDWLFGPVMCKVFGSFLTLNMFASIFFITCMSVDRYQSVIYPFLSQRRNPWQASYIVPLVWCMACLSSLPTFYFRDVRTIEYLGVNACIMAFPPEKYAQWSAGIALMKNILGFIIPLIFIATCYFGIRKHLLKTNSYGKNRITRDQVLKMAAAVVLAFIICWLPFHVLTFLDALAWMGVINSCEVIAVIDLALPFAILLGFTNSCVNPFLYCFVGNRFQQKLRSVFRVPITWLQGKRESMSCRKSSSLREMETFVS
Method: as §1

[8] = molecular target: T8, D2S (h) (antagonist radioligand) (Homo sapiens, UniProt P14416); assay: CEREP Diversity Panel; type: binding
T8 construct: purchased CEREP (Eurofins Cerep)
Method: as §1

[9] = molecular target: T9, V1a (h) (agonist radioligand) (Homo sapiens, UniProt P37288); assay: CEREP Diversity Panel; type: binding
T9 construct: purchased CEREP (Eurofins Cerep)
Method: as §1

[10] = molecular target: T10, V2 (h) (agonist radioligand) (Homo sapiens, UniProt P30518); assay: CEREP Diversity Panel; type: binding
T10 construct: purchased CEREP (Eurofins Cerep)
Method: as §1

[11] = molecular target: T11, H2 (h) (antagonist radioligand) (Homo sapiens, UniProt P25021); assay: CEREP Diversity Panel; type: binding
T11 construct: purchased CEREP (Eurofins Cerep)
Method: as §1

[12] = molecular target: T12, A2A (h) (agonist radioligand) (Homo sapiens, UniProt P29274); assay: CEREP Diversity Panel; type: binding
T12 construct: purchased CEREP (Eurofins Cerep)
T12 sequence (P29274 whole entry): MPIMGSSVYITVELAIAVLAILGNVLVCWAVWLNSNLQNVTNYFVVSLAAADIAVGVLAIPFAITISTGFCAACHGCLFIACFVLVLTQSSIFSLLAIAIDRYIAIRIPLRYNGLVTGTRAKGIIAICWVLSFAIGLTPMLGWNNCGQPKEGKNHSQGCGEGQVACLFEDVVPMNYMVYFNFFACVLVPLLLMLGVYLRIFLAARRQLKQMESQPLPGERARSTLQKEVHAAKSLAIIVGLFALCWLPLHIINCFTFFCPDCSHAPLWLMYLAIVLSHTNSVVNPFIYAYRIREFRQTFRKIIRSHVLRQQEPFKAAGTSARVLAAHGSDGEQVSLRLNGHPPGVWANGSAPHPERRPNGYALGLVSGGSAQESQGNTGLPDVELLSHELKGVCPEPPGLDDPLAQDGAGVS
Method: as §1

[13] = molecular target: T13, CRF1 (h) (agonist radioligand) (Homo sapiens, UniProt P34998); assay: CEREP Diversity Panel; type: binding
T13 construct: purchased CEREP (Eurofins Cerep)
Method: as §1

[14] = molecular target: T14, beta 2 (h) (agonist radioligand) (Homo sapiens, UniProt P07550); assay: CEREP Diversity Panel; type: binding
T14 construct: purchased CEREP (Eurofins Cerep)
Method: as §1

[15] = molecular target: T15, PR (h) (agonist radioligand) (Homo sapiens, UniProt P06401); assay: CEREP Diversity Panel; type: binding
T15 construct: purchased CEREP (Eurofins Cerep)
T15 sequence (P06401 whole entry): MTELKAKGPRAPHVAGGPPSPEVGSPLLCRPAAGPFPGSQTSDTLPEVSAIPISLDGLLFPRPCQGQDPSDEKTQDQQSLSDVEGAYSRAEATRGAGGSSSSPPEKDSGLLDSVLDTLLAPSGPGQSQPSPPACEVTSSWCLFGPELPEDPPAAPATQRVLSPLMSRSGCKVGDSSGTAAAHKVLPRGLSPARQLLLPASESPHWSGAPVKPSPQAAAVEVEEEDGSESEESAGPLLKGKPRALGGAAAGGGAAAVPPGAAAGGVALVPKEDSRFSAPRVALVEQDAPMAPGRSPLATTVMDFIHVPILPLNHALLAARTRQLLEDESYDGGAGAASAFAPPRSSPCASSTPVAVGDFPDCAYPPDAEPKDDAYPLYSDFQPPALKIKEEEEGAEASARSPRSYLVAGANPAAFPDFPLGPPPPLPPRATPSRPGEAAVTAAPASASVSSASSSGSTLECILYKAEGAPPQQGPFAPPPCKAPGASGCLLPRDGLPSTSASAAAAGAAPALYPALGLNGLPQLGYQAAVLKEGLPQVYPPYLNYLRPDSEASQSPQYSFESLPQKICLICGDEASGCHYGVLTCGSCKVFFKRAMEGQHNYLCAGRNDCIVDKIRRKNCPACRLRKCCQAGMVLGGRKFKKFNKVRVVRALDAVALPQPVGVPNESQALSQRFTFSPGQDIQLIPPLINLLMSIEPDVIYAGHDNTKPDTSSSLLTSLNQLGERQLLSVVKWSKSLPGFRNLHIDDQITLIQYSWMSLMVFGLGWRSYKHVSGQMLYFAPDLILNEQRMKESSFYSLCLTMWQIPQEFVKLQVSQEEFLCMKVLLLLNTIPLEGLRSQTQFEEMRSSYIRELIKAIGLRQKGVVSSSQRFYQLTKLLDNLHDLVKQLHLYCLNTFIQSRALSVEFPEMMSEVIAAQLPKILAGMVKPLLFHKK
Method: as §1

[16] = molecular target: T16, PAR1 (h) (agonist radioligand) (Homo sapiens, UniProt P25116); assay: CEREP Diversity Panel; type: binding
T16 construct: purchased CEREP (Eurofins Cerep)
Method: as §1

[17] = molecular target: T17, MC4 (h) (agonist radioligand) (Homo sapiens, UniProt P32245); assay: CEREP Diversity Panel; type: binding
T17 construct: purchased CEREP (Eurofins Cerep)
T17 sequence (P32245 whole entry): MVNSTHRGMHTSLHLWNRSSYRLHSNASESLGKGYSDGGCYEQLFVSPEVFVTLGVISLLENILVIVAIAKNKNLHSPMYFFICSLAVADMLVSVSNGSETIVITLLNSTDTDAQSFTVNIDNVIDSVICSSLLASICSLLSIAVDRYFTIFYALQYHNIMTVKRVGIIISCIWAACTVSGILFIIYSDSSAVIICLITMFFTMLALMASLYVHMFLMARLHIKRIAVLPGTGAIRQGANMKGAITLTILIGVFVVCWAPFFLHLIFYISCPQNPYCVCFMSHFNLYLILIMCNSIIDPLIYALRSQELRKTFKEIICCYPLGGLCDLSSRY
Method: as §1

[18] = molecular target: T18, N neuronal a 4b 2 (h) (agonist radioligand) (Homo sapiens, UniProt P17787+P43681); assay: CEREP Diversity Panel; type: binding
T18 construct: purchased CEREP (Eurofins Cerep)
Method: as §1

[19] = molecular target: T19, dopamine transporter (h) (antagonist radioligand) (Homo sapiens, UniProt Q01959); assay: CEREP Diversity Panel; type: binding
T19 construct: purchased CEREP (Eurofins Cerep)
T19 sequence (Q01959 whole entry): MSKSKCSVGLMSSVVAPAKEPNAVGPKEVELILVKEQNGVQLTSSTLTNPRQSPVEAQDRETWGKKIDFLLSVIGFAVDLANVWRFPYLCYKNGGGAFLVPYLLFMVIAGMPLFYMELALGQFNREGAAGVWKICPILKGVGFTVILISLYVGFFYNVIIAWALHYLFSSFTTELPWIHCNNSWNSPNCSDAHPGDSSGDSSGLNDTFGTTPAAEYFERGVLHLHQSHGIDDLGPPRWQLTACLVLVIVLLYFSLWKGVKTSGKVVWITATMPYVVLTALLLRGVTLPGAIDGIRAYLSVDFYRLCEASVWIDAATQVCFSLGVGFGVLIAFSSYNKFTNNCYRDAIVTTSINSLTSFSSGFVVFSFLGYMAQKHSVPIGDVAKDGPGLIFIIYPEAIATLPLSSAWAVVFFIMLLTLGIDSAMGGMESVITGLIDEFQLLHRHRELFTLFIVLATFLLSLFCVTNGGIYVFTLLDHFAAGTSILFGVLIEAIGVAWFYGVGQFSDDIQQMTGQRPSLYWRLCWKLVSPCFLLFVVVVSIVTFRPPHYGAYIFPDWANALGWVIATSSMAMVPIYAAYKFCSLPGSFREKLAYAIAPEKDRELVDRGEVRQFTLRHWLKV
Method: as §1

[20] = molecular target: T20, EP2 (h) (agonist radioligand) (Homo sapiens, UniProt P43116); assay: CEREP Diversity Panel; type: binding
T20 construct: purchased CEREP (Eurofins Cerep)
T20 sequence (P43116 whole entry): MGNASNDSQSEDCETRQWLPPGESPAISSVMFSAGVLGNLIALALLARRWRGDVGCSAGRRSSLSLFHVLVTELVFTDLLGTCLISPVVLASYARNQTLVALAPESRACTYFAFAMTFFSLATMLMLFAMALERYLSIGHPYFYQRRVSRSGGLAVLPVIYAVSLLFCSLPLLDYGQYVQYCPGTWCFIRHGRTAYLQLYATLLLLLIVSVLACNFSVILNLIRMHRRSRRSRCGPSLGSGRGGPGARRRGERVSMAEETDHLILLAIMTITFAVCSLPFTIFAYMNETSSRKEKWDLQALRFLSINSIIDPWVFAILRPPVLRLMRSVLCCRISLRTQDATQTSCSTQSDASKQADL
Method: as §1

[21] = molecular target: T21, D1 (h) (antagonist radioligand) (Homo sapiens, UniProt P21728); assay: CEREP Diversity Panel; type: binding
T21 construct: purchased CEREP (Eurofins Cerep)
Method: as §1

[22] = molecular target: T22, A3 (h) (agonist radioligand) (Homo sapiens, UniProt P0DMS8); assay: CEREP Diversity Panel; type: binding
T22 construct: purchased CEREP (Eurofins Cerep)
Method: as §1

[23] = molecular target: T23, CCK2 (CCKB) (h) (agonist radioligand) (Homo sapiens, UniProt P32239); assay: CEREP Diversity Panel; type: binding
T23 construct: purchased CEREP (Eurofins Cerep)
Method: as §1

[24] = molecular target: T24, B2 (h) (agonist radioligand) (Homo sapiens, UniProt P30411); assay: CEREP Diversity Panel; type: binding
T24 construct: purchased CEREP (Eurofins Cerep)
Method: as §1

[25] = molecular target: T25, choline transporter (CHT1) (h) (antagonist radioligand) (Homo sapiens, UniProt Q9GZV3); assay: CEREP Diversity Panel; type: binding
T25 construct: purchased CEREP (Eurofins Cerep)
Method: as §1

[26] = molecular target: T26, D4.4 (h) (antagonist radioligand) (Homo sapiens, UniProt P21917); assay: CEREP Diversity Panel; type: binding
T26 construct: purchased CEREP (Eurofins Cerep)
T26 sequence (P21917 whole entry): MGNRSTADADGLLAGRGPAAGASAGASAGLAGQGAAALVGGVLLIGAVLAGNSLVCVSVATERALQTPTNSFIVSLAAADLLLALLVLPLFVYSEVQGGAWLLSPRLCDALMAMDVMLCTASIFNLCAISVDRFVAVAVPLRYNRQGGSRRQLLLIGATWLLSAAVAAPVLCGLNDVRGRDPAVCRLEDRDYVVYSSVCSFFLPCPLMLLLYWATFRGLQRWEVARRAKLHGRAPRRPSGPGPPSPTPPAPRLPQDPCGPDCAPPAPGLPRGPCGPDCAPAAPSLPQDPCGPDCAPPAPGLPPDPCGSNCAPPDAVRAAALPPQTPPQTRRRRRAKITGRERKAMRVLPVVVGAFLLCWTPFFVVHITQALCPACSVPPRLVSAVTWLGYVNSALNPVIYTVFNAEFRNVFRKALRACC
Method: as §1

[27] = molecular target: T27, ETA (h) (agonist radioligand) (Homo sapiens, UniProt P25101); assay: CEREP Diversity Panel; type: binding
T27 construct: purchased CEREP (Eurofins Cerep)
Method: as §1

[28] = molecular target: T28, NOP (ORL1) (h) (agonist radioligand) (Homo sapiens, UniProt P41146); assay: CEREP Diversity Panel; type: binding
T28 construct: purchased CEREP (Eurofins Cerep)
Method: as §1

Mouse recombinant KDM1B = molecular target: T29, Mouse recombinant KDM1B (Mus musculus, UniProt Q8CIG3); assay: KDM1B inhibition assay; type: biochemical
T29 construct: gift: Dr. Andrea Mattevi, University of Pavia
Method: Mouse recombinant KDM1B protein was kindly provided by Dr. Andrea Mattevi from the University of Pavia. The biochemical activity assay was carried out at room temperature in a similar manner as for KDM1A but using 50 mM HEPES pH 8.5 as the reaction buffer, but with 10 min of incubation of KDM1B in the presence of dimethylated H3K4 peptide at the KMapp of KDM1B.

brain MAO-A, sequence (Q64133 whole entry): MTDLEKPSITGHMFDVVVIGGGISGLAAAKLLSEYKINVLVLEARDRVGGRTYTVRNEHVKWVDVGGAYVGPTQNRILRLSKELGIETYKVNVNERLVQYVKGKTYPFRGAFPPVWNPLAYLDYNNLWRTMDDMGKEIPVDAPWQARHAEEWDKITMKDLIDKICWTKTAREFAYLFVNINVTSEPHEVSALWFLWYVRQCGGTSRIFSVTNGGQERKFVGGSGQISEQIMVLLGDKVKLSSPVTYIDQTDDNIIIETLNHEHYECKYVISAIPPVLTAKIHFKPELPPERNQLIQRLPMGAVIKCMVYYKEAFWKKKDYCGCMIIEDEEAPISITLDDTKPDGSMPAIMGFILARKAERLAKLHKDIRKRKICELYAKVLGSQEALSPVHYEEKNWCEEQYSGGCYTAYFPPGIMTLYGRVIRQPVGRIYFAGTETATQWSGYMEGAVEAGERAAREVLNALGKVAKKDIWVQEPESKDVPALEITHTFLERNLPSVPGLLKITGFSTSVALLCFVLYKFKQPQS

Which results are given for Nc1nnc(CN[C@@H]2C[C@H]2c2ccc(OCc3ccccc3)cc2)o1 [ORY-2001, vafidemstat]?
ex vivo brain MAO-A inhibition, acute setting (brain MAO-A; mice, acute 1 to 100 mg/kg p.o. gavage): only the 100 mg/kg dose led to a significant inhibition; ED50 (brain MAO-A; mouse, po, read-out: ED50 ex vivo brain MAO-A inhibition): ~10 mg/kg; inhibition at 10 µM [1]: 33%; inhibition at 10 µM [2]: -8%; inhibition at 10 µM [3]: -2%; inhibition at 10 µM [4]: 3%; inhibition at 10 µM [5]: 4%; inhibition at 10 µM [6]: 26%; inhibition at 10 µM [7]: -6%; inhibition at 10 µM [8]: -8%; inhibition at 10 µM [9]: 1%; inhibition at 10 µM [10]: -12%; inhibition at 10 µM [11]: -3%; inhibition at 10 µM [12]: -8%; inhibition at 10 µM [13]: 18%; inhibition at 10 µM [14]: 5%; inhibition at 10 µM [15]: -11%; inhibition at 10 µM [16]: -2%; inhibition at 10 µM [17]: 7%; inhibition at 10 µM [18]: -3%; inhibition at 10 µM [19]: 33%; inhibition at 10 µM [20]: 18%; inhibition at 10 µM [21]: -5%; inhibition at 10 µM [22]: -4%; inhibition at 10 µM [23]: -15%; inhibition at 10 µM [24]: -5%; inhibition at 10 µM [25]: -2%; inhibition at 10 µM [26]: 9%; inhibition at 10 µM [27]: -23%; inhibition at 10 µM [28]: 0%; inhibition at 10 µM (Mouse recombinant KDM1B): 7%
